What was measured:
Recombinant PHD2 = target: T1, Recombinant PHD2 (Homo sapiens, UniProt Q9GZT9); experiment: In vitro PHD2 enzymatic assay (HIF peptide hydroxylation, HPLC); type: biochemical
T1 construct: purchased ActiveMotif, Japan 81065
Experimental: To identify whether TGF-β1 directly affects PHD2 enzymatic activity, we performed an in vitro PHD2 assay using synthetic HIF-1α peptide as a substrate (Fig. 2h). […] To further investigate whether Fe^2+ oxidation impairs PHD2 activity, we introduced H2O2 into the reaction to promote Fe^2+ oxidation.
A reaction mixture (30 µL total volume) containing 300 µM HIF peptide, 1 µM recombinant PHD2, 20 mM Tris-HCl (pH 7.5), 1 mM DTT, 300 µM ascorbic acid, 5 mM KCl, 1.5 mM MgCl2, 50 µM Fe(SO4)·6H2O, and 300 µM α-ketoglutarate was incubated at 30 °C for 2 hr. The reaction was terminated by adding an equal volume (30 µL) of DMSO. Product analysis was carried out on Waters 2998 HPLC system equipped with a photodiode array detector and an XBridge™ BEH C18 column (4.6 × 250 mm, 5 µm), detecting at 280 nm. A hydroxylated HIF peptide served as a reference standard.

HIF-1α–EGFP in A549 = experiment: pg-HIF-1α–EGFP fluorescence in transfected A549; type: cell-based, human; conditions: A549, co-treatment with TGF-β1
Experimental: pg-HIF-1α–EGFP was introduced via jetOPTIMUS®; GFP fluorescence was quantified 48 h post-transfection.
Transient transfection of A549 cells with pg-HIF-1α–EGFP was performed using jetOPTIMUS® according to the manufacturer’s protocol. Following 48 hr of transfection, the medium was replaced, and cells were treated with TGF-β1 at the specified concentration and duration before further analysis. Cell imaging was performed using an EVOS™ M7000 at 10×, 20×, or 40× magnification. GFP fluorescence intensity was measured using ImageJ. The mean fluorescence within the regions of interest (ROIs) was calculated after background subtraction, and values were normalized to the control condition

A549 [1] = experiment: Western blot of HIF-1α, fibrosis and EMT markers in A549; type: cell-based, human; conditions: for HIF-1α and COL4A6 levels (Western blot): A549, TGF-β1 co-treatment
A549 [2] = experiment: Scratch migration assay; type: cell-based, human; conditions: CoCl2 or FG-4592 treatment
[3] = system: BLM-induced pulmonary fibrosis; experiment: BLM-induced pulmonary fibrosis, Ashcroft scoring of lung sections; type: in vivo, ICR mice; conditions: BLM 30 mg/kg intratracheal; ACF-2 10 mg/kg i.p. every 2 days or NIDB 60 mg/kg/day in drinking water, 2 weeks; BLM-only 6.2
Experimental: Male ICR mice received BLM (30 mg/kg, intratracheal). […] Fixed left lung lobes were paraffin-embedded, sectioned (4 μm), and stained with H&E or MT. A blinded pathologist graded pulmonary fibrosis on the 1-8 Ashcroft scale; representative images illustrate typical lesions. Colon samples were processed by the swiss-roll method, stained with H&E, and scored for inflammation and erosion, which were combined into a composite histological score. All animal studies were approved by the Institutional Animal Care and Use Committee of Jeju National University (Approval ID: 2024-0058) and conducted in compliance with institutional guidelines. Male ICR mice (6 weeks old, average body weight 27 g) were purchased from […] (South Korea) and housed under controlled temperature (22 ± 2 °C) and humidity (0.0 ± 15.0 %) on a 12 hr light-dark cycle with free access to food and water. […] Lung tissue: Left lung lobes were fixed in 4% paraformaldehyde for 24 h, dehydrated, and embedded in paraffin. Sections of 4 μm thickness were prepared, deparaffinized with xylene, and rehydrated in a graded ethanol series. H&E staining was performed using hematoxylin and eosin solutions, respectively. The severity of fibrosis was graded according to the Ashcroft scale (1-8), as evaluated by a pathologist blindly. Representative H&E images were chosen to illustrate the most characteristic pathology. […]

colon = experiment: Colonic histopathology in the BLM mouse study; type: in vivo, ICR mice; conditions: BLM mice; ACF-2 10 mg/kg i.p. every 2 days or NIDB 60 mg/kg/day
Source text: Fixed left lung lobes were paraffin-embedded, sectioned (4 μm), and stained with H&E or MT. A blinded pathologist graded pulmonary fibrosis on the 1-8 Ashcroft scale; representative images illustrate typical lesions. Colon samples were processed by the swiss-roll method, stained with H&E, and scored for inflammation and erosion, which were combined into a composite histological score. All animal studies were approved by the Institutional Animal Care and Use Committee of Jeju National University (Approval ID: 2024-0058) and conducted in compliance with institutional guidelines. Male ICR mice (6 weeks old, average body weight 27 g) were purchased from […] (South Korea) and housed under controlled temperature (22 ± 2 °C) and humidity (0.0 ± 15.0 %) on a 12 hr light-dark cycle with free access to food and water. […] Colon tissue: Colons were harvested, flushed with 1xPBS, and prepared using the swiss-roll method before embedding in paraffin. Sections of 4 μm thickness were subjected to H&E staining as described above. Colonic injury was evaluated by two independent parameters: (i) inflammation score (0-3) and (ii) erosion score (0-3). A composite histological score was then calculated as the sum of inflammation and erosion scores for each sample.

[4] = system: BLM-induced pulmonary fibrosis; experiment: RT-qPCR of lung tissue in BLM-treated mice; type: in vivo, ICR mice; conditions: BLM 30 mg/kg; ACF-2 10 mg/kg i.p. every 2 days or NIDB 60 mg/kg/day
Experimental: Total RNA (AccuPrep®) was reverse-transcribed and amplified with SYBR Green chemistry on a StepOnePlusTM system; relative expression was calculated by ΔΔCt. Male ICR mice received BLM (30 mg/kg, intratracheal). […] Total RNA was extracted from both cultured cells and mouse lung tissue using the AccuPrep® Universal RNA Extraction Kit. […] RT-qPCR was performed using iTaqTM Universal SYBR® Green Supermix on a StepOnePlusTM Real-Time PCR System. […] All animal studies were approved by the Institutional Animal Care and Use Committee of Jeju National University (Approval ID: 2024-0058) and conducted in compliance with institutional guidelines. Male ICR mice (6 weeks old, average body weight 27 g) were purchased from […] (South Korea) and housed under controlled temperature (22 ± 2 °C) and humidity (0.0 ± 15.0 %) on a 12 hr light-dark cycle with free access to food and water.

T1 sequence (Q9GZT9 whole entry): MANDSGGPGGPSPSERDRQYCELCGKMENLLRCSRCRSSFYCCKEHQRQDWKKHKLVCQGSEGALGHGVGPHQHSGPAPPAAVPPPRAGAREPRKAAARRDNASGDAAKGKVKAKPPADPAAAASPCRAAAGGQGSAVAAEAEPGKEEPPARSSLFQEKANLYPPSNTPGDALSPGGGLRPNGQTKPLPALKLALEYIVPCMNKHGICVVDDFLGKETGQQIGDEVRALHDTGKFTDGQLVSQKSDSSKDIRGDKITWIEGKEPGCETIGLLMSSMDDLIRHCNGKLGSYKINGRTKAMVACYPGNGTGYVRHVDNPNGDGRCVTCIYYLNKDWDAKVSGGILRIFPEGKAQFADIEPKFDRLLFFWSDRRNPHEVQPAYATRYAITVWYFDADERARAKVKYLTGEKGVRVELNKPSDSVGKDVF

SMILES: O.Oc1cc(O)c2c(c1)O[C@H](c1ccc(O)c(O)c1)[C@@H](O)C2 [Catechin]
- effect on PHD2 activity (Recombinant PHD2; ambient air, comparable concentrations to ACF-2): failed to preserve or enhance PHD2 activity

SMILES: c1ccc2c(c1)[I+]c1ccccc1-2 [DPI, diphenyleneiodonium chloride, reference compound]
- TGF-β1–induced HIF-1α–EGFP GFP fluorescence intensity (HIF-1α–EGFP in A549): substantial drop in GFP intensity
- HIF-1α and COL4A6 levels (Western blot) (A549 [1]): markedly reduced HIF-1α and COL4A6 levels

SMILES: Cc1nc(C(=O)NCC(=O)O)c(O)c2ccc(Oc3ccccc3)cc12 [FG-4592]
- fibrosis-associated proteins (fibronectin, α-SMA, COL3A1, COL4A6) (A549 [1]; A549, ambient air, CoCl2 200 μM, FG-4592 50 μM): increased expression of fibrosis-associated proteins
- cell migration (wound healing) (A549 [2]): significant increase in cell migration

SMILES: OO [H2O2]
- effect on PHD2 activity (H2O2 added to the reaction) (Recombinant PHD2; H2O2 introduced to promote Fe2+ oxidation): inhibited PHD2 activity in a dose-dependent manner

SMILES: COC(=O)c1ccc2c(c1)NC(=O)/C2=C(\Nc1ccc(N(C)C(=O)CN2CCN(C)CC2)cc1)c1ccccc1 [NIDB, nintedanib, reference compound]
- Average Ashcroft score [3]: 3.8
- composite histological score of colon (inflammation + erosion) (colon): significantly increased the composite histological score
- TGF-β1 (Tgfb1) expression in lung (RT-qPCR) [4]: markedly reduced

SMILES: CN(C)c1cccc(-c2c3c(=O)n(-c4ccccc4Cl)[nH]c3cc(=O)n2C)c1 [Setanaxib]
- HIF-1α and COL4A6 levels (Western blot) (A549 [1]): markedly reduced HIF-1α and COL4A6 levels

SMILES: COc1cc(C(C)=O)ccc1O [apocynin]
- HIF-1α and COL4A6 levels (Western blot) (A549 [1]): markedly reduced HIF-1α and COL4A6 levels
